In ChEMBL document CHEMBL4138123, “Design, synthesis and biological evaluation of novel pyrazolochalcones as potential modulators of PI3K/Akt/mTOR pathway and inducers of apoptosis in breast cancer cells” (Eur J Med Chem, 2017):
pIC50: −log10 of the molar value.

Experiments:
HL-60(TB) [1] = experiment: Cytotoxicity against human HL-60(TB) cells assessed as growth inhibition after 48 hrs by sulforhodamine B assay; type: functional; conditions: HL-60, 48 h
NCI-H460 = experiment: Cytotoxicity against human NCI-H460 cells assessed as growth inhibition after 48 hrs by sulforhodamine B assay; type: functional; conditions: NCI-H460, 48 h
SF-539 = experiment: Cytotoxicity against human SF539 cells assessed as growth inhibition after 48 hrs by sulforhodamine B assay; type: functional; conditions: SF-539, 48 h
SK-MEL-28 [2] = experiment: Cytotoxicity against human SK-MEL-28 cells assessed as growth inhibition after 48 hrs by sulforhodamine B assay; type: functional; conditions: SK-MEL-28, 48 h
IGROV-1 [3] = experiment: Cytotoxicity against human IGROV1 cells assessed as growth inhibition after 48 hrs by sulforhodamine B assay; type: functional; conditions: IGROV-1, 48 h
MDA-MB-231 [4] = experiment: Cytotoxicity against human MDA-MB-231 cells assessed as growth inhibition after 48 hrs by MTT assay; type: functional, cell-based; conditions: MDA-MB-231, 48 h
ACHN = experiment: Cytotoxicity against human ACHN cells assessed as cell growth at 0.01 uM after 48 hrs by sulforhodamine B assay relative to control; type: functional; conditions: read-out: Activity
UACC-257 [5] = experiment: Cytotoxicity against human UACC257 cells assessed as cell growth at 0.01 uM after 48 hrs by sulforhodamine B assay relative to control; type: functional; conditions: UACC-257, 48 h, read-out: Activity
SN12C [6] = experiment: Cytotoxicity against human SN12C cells assessed as cell growth at 0.01 uM after 48 hrs by sulforhodamine B assay relative to control; type: functional; conditions: read-out: Activity
PC-3 [7] = experiment: Cytotoxicity against human PC3 cells assessed as cell growth at 0.01 uM after 48 hrs by sulforhodamine B assay relative to control; type: functional; conditions: PC-3, 48 h, read-out: Activity
CCRF-CEM = experiment: Cytotoxicity against human CCRF-CEM cells assessed as cell growth at 0.1 uM after 48 hrs by sulforhodamine B assay relative to control; type: functional; conditions: read-out: Activity
HOP-62 [8] = experiment: Cytotoxicity against human HOP62 cells assessed as cell growth at 0.1 uM after 48 hrs by sulforhodamine B assay relative to control; type: functional; conditions: HOP-62, 48 h, read-out: Activity
NCI-H23 = experiment: Cytotoxicity against human NCI-H23 cells assessed as cell growth at 0.1 uM after 48 hrs by sulforhodamine B assay relative to control; type: functional; conditions: NCI-H23, 48 h, read-out: Activity
786-0 [9] = experiment: Cytotoxicity against human 786-0 cells assessed as cell growth at 0.1 uM after 48 hrs by sulforhodamine B assay relative to control; type: functional; conditions: 786-0, 48 h, read-out: Activity
MOLT-4 [10] = experiment: Cytotoxicity against human MOLT4 cells assessed as cell growth at 1 uM after 48 hrs by sulforhodamine B assay relative to control; type: functional; conditions: MOLT-4, 48 h, read-out: Activity
SR = experiment: Cytotoxicity against human SR cells assessed as cell growth at 1 uM after 48 hrs by sulforhodamine B assay relative to control; type: functional; conditions: read-out: Activity
A549 = experiment: Cytotoxicity against human A549/ATCC cells assessed as cell growth at 1 uM after 48 hrs by sulforhodamine B assay relative to control; type: functional; conditions: A549, 48 h, read-out: Activity
SK-MEL-28 [11] = experiment: Cytotoxicity against human SK-MEL-28 cells assessed as cell growth at 1 uM after 48 hrs by sulforhodamine B assay relative to control; type: functional; conditions: SK-MEL-28, 48 h, read-out: Activity
UACC-257 [12] = experiment: Cytotoxicity against human UACC257 cells assessed as cell growth at 1 uM after 48 hrs by sulforhodamine B assay relative to control; type: functional; conditions: UACC-257, 48 h, read-out: Activity
UACC-62 = experiment: Cytotoxicity against human UACC62 cells assessed as cell growth at 1 uM after 48 hrs by sulforhodamine B assay relative to control; type: functional; conditions: UACC-62, 48 h, read-out: Activity
SK-OV-3 = experiment: Cytotoxicity against human SKOV3 cells assessed as cell growth at 1 uM after 48 hrs by sulforhodamine B assay relative to control; type: functional; conditions: SK-OV-3, 48 h, read-out: Activity
RXF 393 = experiment: Cytotoxicity against human RXF393 cells assessed as cell growth at 1 uM after 48 hrs by sulforhodamine B assay relative to control; type: functional; conditions: RXF 393, 48 h, read-out: Activity
PC-3 [13] = experiment: Cytotoxicity against human PC3 cells assessed as cell growth at 1 uM after 48 hrs by sulforhodamine B assay relative to control; type: functional; conditions: PC-3, 48 h, read-out: Activity
HL-60(TB) [14] = experiment: Cytotoxicity against human HL-60(TB) cells assessed as cell growth at 10 uM after 48 hrs by sulforhodamine B assay relative to control; type: functional; conditions: HL-60, 48 h, read-out: Activity
MOLT-4 [15] = experiment: Cytotoxicity against human MOLT4 cells assessed as cell growth at 10 uM after 48 hrs by sulforhodamine B assay relative to control; type: functional; conditions: MOLT-4, 48 h, read-out: Activity
HOP-62 [16] = experiment: Cytotoxicity against human HOP62 cells assessed as cell growth at 10 uM after 48 hrs by sulforhodamine B assay relative to control; type: functional; conditions: HOP-62, 48 h, read-out: Activity
SK-MEL-28 [17] = experiment: Cytotoxicity against human SK-MEL-28 cells assessed as cell growth at 10 uM after 48 hrs by sulforhodamine B assay relative to control; type: functional; conditions: SK-MEL-28, 48 h, read-out: Activity
IGROV-1 [18] = experiment: Cytotoxicity against human IGROV1 cells assessed as cell growth at 10 uM after 48 hrs by sulforhodamine B assay relative to control; type: functional; conditions: IGROV-1, 48 h, read-out: Activity
NCI/ADR-RES = experiment: Cytotoxicity against human NCI/ADR-RES cells assessed as cell growth at 10 uM after 48 hrs by sulforhodamine B assay relative to control; type: functional; conditions: read-out: Activity
A498 = experiment: Cytotoxicity against human A498 cells assessed as cell growth at 10 uM after 48 hrs by sulforhodamine B assay relative to control; type: functional; conditions: A498, 48 h, read-out: Activity
SN12C [19] = experiment: Cytotoxicity against human SN12C cells assessed as cell growth at 10 uM after 48 hrs by sulforhodamine B assay relative to control; type: functional; conditions: read-out: Activity
TK-10 = experiment: Cytotoxicity against human TK10 cells assessed as cell growth at 10 uM after 48 hrs by sulforhodamine B assay relative to control; type: functional; conditions: TK-10, 48 h, read-out: Activity
SK-MEL-5 = experiment: Cytotoxicity against human SK-MEL-5 cells assessed as cell growth at 100 uM after 48 hrs by sulforhodamine B assay relative to control; type: functional; conditions: SK-MEL-5, 48 h, read-out: Activity
786-0 [20] = experiment: Cytotoxicity against human 786-0 cells assessed as cell growth at 100 uM after 48 hrs by sulforhodamine B assay relative to control; type: functional; conditions: 786-0, 48 h, read-out: Activity
MDA-MB-231 [21] = experiment: Cytotoxicity against human MDA-MB-231 cells assessed as cell growth at 100 uM after 48 hrs by sulforhodamine B assay relative to control; type: functional; conditions: MDA-MB-231, 48 h, read-out: Activity
DU-145 = experiment: Cytotoxicity against human DU145 cells assessed as cell growth at 0.01 uM after 48 hrs by sulforhodamine B assay relative to control; type: functional; conditions: DU-145, 48 h, read-out: Activity

| SMILES | LC50 (HL-60(TB) [1]) | TGI (HL-60(TB) [1]) | LC50 (NCI-H460) | TGI (NCI-H460) | LC50 (concentration killing 50% of cells) (SF-539) | TGI (SF-539) | LC50 (SK-MEL-28 [2]) | TGI (SK-MEL-28 [2]) | LC50 (IGROV-1 [3]) | TGI (IGROV-1 [3]) | pIC50 (MDA-MB-231 [4]) | growth at 0.01 µM (ACHN) | growth at 0.01 µM (UACC-257 [5]) | growth at 0.01 µM (SN12C [6]) | growth at 0.01 µM (PC-3 [7]) | growth at 0.1 µM (CCRF-CEM) | growth at 0.1 µM (HOP-62 [8]) | growth at 0.1 µM (NCI-H23) | growth at 0.1 µM (786-0 [9]) | growth at 1 µM (MOLT-4 [10]) | other results |
| --- | --- | --- | --- | --- | --- | --- | --- | --- | --- | --- | --- | --- | --- | --- | --- | --- | --- | --- | --- | --- | --- |
| COc1cc(-c2cc(/C=C/C(=O)c3ccc(Cl)c(Cl)c3)[nH]n2)cc(OC)c1OC | > 100 µM | 36.7 µM | > 100 µM | 36.6 µM | 57.8 µM | 18.7 µM | > 100 µM | 66 µM | > 100 µM | > 100 µM | 5.68 | 107% | 96% | 98% | 95% | 98% | 101% | 92% | 94% | 97% | growth at 1 µM (SR): 23%; growth at 1 µM (A549): 93%; growth at 1 µM (SK-MEL-28 [11]): 114%; growth at 1 µM (UACC-257 [12]): 90%; growth at 1 µM (UACC-62): 96%; growth at 1 µM (SK-OV-3): 89%; growth at 1 µM (RXF 393): 81%; growth at 1 µM (PC-3 [13]): 87%; growth at 10 µM (HL-60(TB) [14]): 43%; growth at 10 µM (MOLT-4 [15]): 24%; growth at 10 µM (HOP-62 [16]): -9%; growth at 10 µM (SK-MEL-28 [17]): 73%; growth at 10 µM (IGROV-1 [18]): 75%; growth at 10 µM (NCI/ADR-RES): 51%; growth at 10 µM (A498): 43%; growth at 10 µM (SN12C [19]): 56%; growth at 10 µM (TK-10): 46%; growth at 100 µM (SK-MEL-5): -30%; growth at 100 µM (786-0 [20]): -10%; growth at 100 µM (MDA-MB-231 [21]): 2% |
| COc1cc(-c2cc(/C=C/C(=O)c3ccc(F)c(F)c3)[nH]n2)cc(OC)c1OC | > 100 µM | 6.03 µM | 80.4 µM | 8.24 µM | 70 µM | 17.7 µM | > 100 µM | 28.2 µM | > 100 µM | 87 µM | 5.82 | 102% | 88% | 95% | 98% | 96% | 101% | 92% | 95% | 91% | growth at 1 µM (SR): 84%; growth at 1 µM (A549): 82%; growth at 1 µM (SK-MEL-28 [11]): 98%; growth at 1 µM (UACC-257 [12]): 72%; growth at 1 µM (UACC-62): 88%; growth at 1 µM (SK-OV-3): 90%; growth at 1 µM (RXF 393): 82%; growth at 1 µM (PC-3 [13]): 70%; growth at 10 µM (HL-60(TB) [14]): -29%; growth at 10 µM (MOLT-4 [15]): -4%; growth at 10 µM (HOP-62 [16]): 25%; growth at 10 µM (SK-MEL-28 [17]): 32%; growth at 10 µM (IGROV-1 [18]): 14%; growth at 10 µM (NCI/ADR-RES): 11%; growth at 10 µM (A498): -14%; growth at 10 µM (SN12C [19]): 15%; growth at 10 µM (TK-10): -13%; growth at 100 µM (SK-MEL-5): -88%; growth at 100 µM (786-0 [20]): -47%; growth at 100 µM (MDA-MB-231 [21]): -49% |
| COc1ccc(C(=O)/C=C/c2cc(-c3ccc4c(c3)OCO4)n[nH]2)cc1OC | > 100 µM | 11.8 µM | 9.07 µM | 4.05 µM | 11.9 µM | 4.47 µM | 48.6 µM | 19.3 µM | 68 µM | 9.2 µM | 5.82 | 101% | 91% | 92% | 99% | 99% | 99% | 89% | 95% | 96% | growth at 0.01 µM (DU-145): 101%; growth at 1 µM (SR): 57%; growth at 1 µM (A549): 85%; growth at 1 µM (SK-MEL-28 [11]): 96%; growth at 1 µM (UACC-257 [12]): 93%; growth at 1 µM (UACC-62): 98%; growth at 1 µM (SK-OV-3): 99%; growth at 1 µM (RXF 393): 105%; growth at 1 µM (PC-3 [13]): 74%; growth at 10 µM (HL-60(TB) [14]): 3%; growth at 10 µM (HOP-62 [16]): -29%; growth at 10 µM (SK-MEL-28 [17]): 36%; growth at 10 µM (IGROV-1 [18]): -4%; growth at 10 µM (A498): -43%; growth at 10 µM (SN12C [19]): 11%; growth at 10 µM (TK-10): -5%; growth at 100 µM (SK-MEL-5): -95%; growth at 100 µM (786-0 [20]): -83%; growth at 100 µM (MDA-MB-231 [21]): -86% |
